Reference: patent US8637518B2, “Pyridazinone derivatives” (MERCK PATENT GmbH, priority 2008, dated 2014)

Legend:
TPR-Met/NIH3T3 cells = assay: In-vivo tests: tumour volume in mice injected subcutaneously with TPR-Met/NIH3T3 cells; conditions: female Balb/C mice, subcutaneous TPR-Met/NIH3T3 tumours, 200 mg/kg daily by gastric tube, 9 days
Protocol: Experimental procedure: Female Balb/C mice (breeder: Charles River Wiga) were 5 weeks old on arrival. They were acclimatised to our keeping conditions for 7 days. Each mouse was subsequently injected subcutaneously in the pelvic area with 4 million TPR-Met/NIH3T3 cells in 100 μl of PBS (without Ca++ and Mg++). […] 100 μl of vehicle (0.25% methylcellulose/100 mM acetate buffer, pH 5.5) were administered daily to the control group, and 200 mg/kg of “A56” or “A91” dissolved in the vehicle (volume likewise 100 μl/animal) were administered daily to the treatment groups, in each case by gastric tube.
Measurement of the tumour volume: The length (L) and breadth (B) were measured using a Vernier calliper, and the tumour volume was calculated from the formula L×B×B/2.
Keeping conditions: 4 or 5 animals per cage, feeding with commercial mouse food (Sniff).

Met kinase = biological target: T1, Met kinase (Homo sapiens, UniProt P08581); assay: Met kinase inhibition, enzyme assay (flashplate method); format: biochemical
T1 construct: 6His (N); purchased Upstate 14-526; host or cells: Sf21 insect cells (S. frugiperda), baculovirus
T1 sequence (P08581 974-1390 limits assumed): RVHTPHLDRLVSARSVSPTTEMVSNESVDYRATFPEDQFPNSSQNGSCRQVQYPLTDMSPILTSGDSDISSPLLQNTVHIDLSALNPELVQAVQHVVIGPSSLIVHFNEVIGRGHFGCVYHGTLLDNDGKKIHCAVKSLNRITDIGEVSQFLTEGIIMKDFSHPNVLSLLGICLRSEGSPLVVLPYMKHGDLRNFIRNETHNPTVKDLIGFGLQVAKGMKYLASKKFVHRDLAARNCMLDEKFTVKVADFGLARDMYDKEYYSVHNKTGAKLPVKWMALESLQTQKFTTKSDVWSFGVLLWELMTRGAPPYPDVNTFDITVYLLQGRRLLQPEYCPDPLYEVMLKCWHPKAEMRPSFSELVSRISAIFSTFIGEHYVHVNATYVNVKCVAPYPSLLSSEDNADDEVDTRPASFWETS
Description: According to the manufacturer's data (Met, active, upstate, catalogue No. 14-526), Met kinase is expressed for the purposes of protein production in insect cells (Sf21; S. frugiperda) and subsequent affinity-chromatographic purification as “N-terminal 6His-tagged” recombinant human protein in a baculovirus expression vector.
The test plates used are 96-well Flashplate® microtitre plates from Perkin Elmer (Cat. No. SMP200). The components of the kinase reaction described below are pipetted into the assay plate. The Met kinase and the substrate poly Ala-Glu-Lys-Tyr, (pAGLT, 6:2:5:1), are incubated for 3 hrs at room temperature with radioactively labelled ^33P-ATP in the presence and absence of test substances in a total volume of 100 μl. The reaction is terminated using 150 μl of a 60 mM EDTA solution. After incubation for a further 30 min at room temperature, the supernatants are filtered off with suction, and the wells are washed three times with 200 μl of 0.9% NaCl solution each time. The measurement of the bound radioactivity is carried out by means of a scintillation measuring instrument (Topcount NXT, Perkin-Elmer).
The full value used is the inhibitor-free kinase reaction. This should be approximately in the range 6000-9000 cpm. The pharmacological zero value used is staurosporin in a final concentration of […]. The inhibitory values ([…]) are determined using the RS1_MTS program.
Kinase reaction conditions per well:
• 30 μl of assay buffer • 10 μl of substance to be tested in assay buffer with 10% of DMSO • 10 μl of ATP (final concentration 1 μM cold, 0.35 μCi of ^33P-ATP) • 50 μl of Met kinase/substrate mixture in assay buffer; • (10 ng of enzyme/well, 50 ng of pAGLT/well)
Solutions used: • Assay buffer:
50 mM HEPES • 3 mM magnesium chloride • 3 μM sodium orthovanadate • 3 mM manganese(II) chloride • 1 mM dithiothreitol (DTT)
pH=7.5 (to be set using sodium hydroxide) • Stop solution:
60 mM Titriplex III (EDTA) • ^33P-ATP: Perkin-Elmer; • Met kinase: Upstate, Cat. No. 14-526, Stock 1 μg/10 μl; spec. activity 954 U/mg; • Poly-Ala-Glu-Lys-Tyr, 6:2:5:1: Sigma Cat. No. P1152 In-vivo tests

In the case of `Cn1cc(-c2ccc(=O)n(Cc3cccc(-c4ncc(OC5CCC(O)C5)cn4)c3)n2)cn1` (stereo not shown) [Compound A22, 2-{3-[5-(3-hydroxycyclopentyloxy)pyrimidin-2-yl]benzyl}-6-(1-methyl-1H-pyrazol-4-yl)-2H-pyridazin-3-one], the antitumoural action (TPR-Met/NIH3T3 cells) is reported as “significant antitumoural action”.

`N#Cc1cccc(-c2ccc(=O)n(Cc3cccc(-c4ncc(OCCN5CCNCC5)cn4)c3)n2)c1` [Compound C5, 3-(6-oxo-1-{3-[5-(2-piperazin-1-ylethoxy)pyrimidin-2-yl]benzyl}-1,6-dihydro-pyridazin-3-yl)benzonitrile] showed a melting point of 149 to 150 °C.

For `Cn1cc(-c2ccc(=O)n(Cc3cccc(-c4ncc(OC[C@H]5C[C@@H]5CN)cn4)c3)n2)cn1` [Compound A18, 2-{3-[5-((1S,2S)-2-Aminomethylcyclopropylmethoxy)pyrimidin-2-yl]benzyl}-6-(1-methyl-1H-pyrazol-4-yl)-2H-pyridazin-3-one], the IC50 (Met kinase) was 0.01 to 1 µM and the antitumoural action (TPR-Met/NIH3T3 cells) was “significant antitumoural action”.
